Where two headings read alike, the source gives them in different places.
Test system: skin of hairless mice
Settings: topical in acetone, once daily days 1 through 5, mean ±SD, range 0-21
Excerpt: This irritation is a direct result of activation of the RAR nuclear receptors. Analysis of retinoid topical irritation is also a highly reproducible method of determining in vivo retinoid potency. The SKH1-hrBR or hairless mouse provides a convenient animal model of topical irritation, since retinoid-induced skin flaking and abrasion can be readily scored by eye (Standeven et al., “Specific antagonist of retinoid toxicity in mice.” Toxicol. Appl. Pharmacol. 138:169-175, (1996); Thacher, et al., “Receptor specificity of retinoid-induced hyperplasia. Effect of RXR-selective agonists and correlation with topical irritation”. J. Pharm. Exp. Ther., 282:528-534, (1997)).
Female hairless mice (Crl:SKH1-hrBR), 5-7 weeks old, were obtained from Charles River Breeding Labs (Wilmington, Mass.). Animals were about 6 weeks old at the start of the experiments. Food (Purina Rodent Chow 5001) and reverse osmosis water were provided ad libitum. Mice were housed individually throughout the dosing period. In some experiments, mice that fit within a defined weight range, e.g., 21-25 g, were selected from the available stock and then randomly assigned to the various treatment groups, using body weight as the randomization variable.
The compounds to be tested were dissolved in acetone for application to the backs of the mice.
Mice were treated topically on the back in a volume of 4.0 ml/kg (0.07-0.12 ml) adjusted daily so as to deliver a fixed dose of test compound per g body weight. Doses are disclosed as nmol/25 g.
The mice were weighed daily and the dorsal skin was graded daily using separate semi-quantitative scales to determine flaking and abrasion. These flaking and abrasion scores were combined with weight change (if any) to create a cutaneous toxicity score (Blackjack score).
A visual grading scale was used for characterizing topical irritation on a daily basis. The grading scale used is as follows:
The flaking and abrasion observations were combined with body weight observations to calculate a single, semiquantitative topical or cutaneous “toxicity score” as detailed below. The toxicity score (also known as “blackjack score” since the theoretical maximum is 21) takes into account the maximal severity, and the time of onset of skin flaking and abrasions and the extent of weight between the first and last days of the experiment. Below are listed the seven numerical components of the toxicity score and an explanation of how those values are combined to calculate the toxicity score.
Flaking onset score (2) and average severity score (3) are summed and divided by two. The quotient is added to the maximal severity score (1). Composite flaking scores are calculated for each individual animal in a group, averaged, and rounded to the nearest integer. Values can range from 0-9.
Abrasion onset score (5) and average severity score (6) are summed and divided by two. The quotient is added to the maximal severity score (4). Composite abrasion scores are calculated for each individual animal in a group, averaged and rounded to the nearest integer. Values can range from 0-8.
Composite flaking score, composite abrasion score, and systemic toxicity score are summed to give the “toxicity score.” Toxicity scores are calculated for each individual animal in a group, averaged, and rounded to the nearest integer. Values can range from 0-21 and are expressed in Table 1A below as the mean ±SD of the values for a group.

Compound	Cutaneous Toxicity Score (Blackjack Score) (100 nmole (nmol/25 g))	Cutaneous Toxicity Score (Blackjack Score) (1000 nmole (nmol/25 g))	Cutaneous Toxicity Score (Blackjack Score) (300 nmole (nmol/25 g))
CC1(C)CCC(=O)c2ccc(C#Cc3ccc(CC(=O)O)c(F)c3)cc21 [Compound 15, [2-Fluoro-4-(8.8-dimethyl-5-oxo-5,6,7,8-tetrahydro-naphthalene-2-yl-ethynyl)phenyl]-acetic acid]	1 ± 1	5 ± 2	–
CCN(Cc1ccc(C#Cc2ccc(CC(=O)O)cc2)cc1C)C1CC1 [Compound 131]	1 ± 1	1 ± 1	0 ± 1
